Data from PubChem BioAssay AID256 (DTP/NCI, 2004).
Several values for one entry are separate records, joined by “and”; a condition that tells them apart may be missing. Equal entries are not always repeated. Toxic doses and inconclusive results are not listed.

Tested on: CD2F1 mice, L1210 leukemia ip, survival T/C
Test: NCI In Vivo Anticancer Drug Screen. Data for tumor model L1210 Leukemia (intraperitoneal) in CD2F1 (CDF1) mice
Conditions: higher = longer survival
Method in brief: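 Each value reflects a quotient of treated over vehicle control outcomes in mice with a transplanted tumor.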

[1] = endpoint: mean survival time, dose: 100.0 mg/kg/injection, schedule: Q04DX003 (ip), vehicle: saline with Tween-80
[2] = endpoint: mean survival time, dose: 200.0 mg/kg/injection, schedule: Q04DX003 (ip), vehicle: saline with Tween-80
[3] = endpoint: mean survival time, dose: 400.0 mg/kg/injection, schedule: Q04DX003 (ip), vehicle: saline with Tween-80
[4] = endpoint: mean survival time, dose: 100.0 mg/kg/injection, schedule: Q01DX001 (ip), vehicle: saline sonified
[5] = endpoint: mean survival time, dose: 200.0 mg/kg/injection, schedule: Q01DX001 (ip), vehicle: saline sonified
[6] = endpoint: mean survival time, dose: 100.0 mg/kg/injection, schedule: Q01DX009 (ip), vehicle: other
[7] = endpoint: mean survival time, dose: 200.0 mg/kg/injection, schedule: Q01DX009 (ip), vehicle: other
[8] = endpoint: mean survival time, dose: 50.0 mg/kg/injection, schedule: Q01DX009 (ip), vehicle: saline with Tween-80
[9] = endpoint: mean survival time, dose: 100.0 mg/kg/injection, schedule: Q01DX009 (ip), vehicle: saline with Tween-80
[10] = endpoint: mean survival time, dose: 6.25 mg/kg/injection, schedule: Q01DX009 (ip), vehicle: saline with Tween-80
[11] = endpoint: mean survival time, dose: 12.5 mg/kg/injection, schedule: Q01DX009 (ip), vehicle: saline with Tween-80
[12] = endpoint: mean survival time, dose: 12.5 mg/kg/injection, schedule: Q04DX003 (ip), vehicle: saline with Tween-80
[13] = endpoint: mean survival time, dose: 25.0 mg/kg/injection, schedule: Q04DX003 (ip), vehicle: saline with Tween-80
[14] = endpoint: mean survival time, dose: 25.0 mg/kg/injection, schedule: Q01DX009 (ip), vehicle: saline with Tween-80
[15] = endpoint: mean survival time, dose: 100.0 mg/kg/injection, schedule: Q04DX003 (ip), vehicle: saline
[16] = endpoint: mean survival time, dose: 200.0 mg/kg/injection, schedule: Q04DX003 (ip), vehicle: saline
[17] = endpoint: mean survival time, dose: 400.0 mg/kg/injection, schedule: Q04DX003 (ip), vehicle: saline
[18] = endpoint: mean survival time, dose: 5.0 mg/kg/injection, schedule: Q01DX009 (ip), vehicle: saline with Tween-80
[19] = endpoint: mean survival time, dose: 20.0 mg/kg/injection, schedule: Q01DX009 (ip), vehicle: saline with Tween-80

Compound: CCC(=O)c1ccccc1N
- T/C [1]: 90 % of control
- T/C [2]: 105 % of control
- T/C [3]: 97 % of control

Compound: C=CC1(C)CCN=C(CCN2CCCCC2)O1 (configuration not stated)
- T/C [4]: 97 % of control
- T/C [5]: 100 % of control

Compound: O=c1[nH]cc(F)c(=O)n1C1OC(CO)C(O)C1O (configuration not stated)
- T/C (endpoint: mean survival time, dose: 1.0 mg/kg/injection, schedule: Q01DX009 (ip), vehicle: saline): 169 % of control
- T/C (endpoint: mean survival time, dose: 2.0 mg/kg/injection, schedule: Q01DX005 (ip), vehicle: saline): 160 % of control
- T/C (endpoint: mean survival time, dose: 2.0 mg/kg/injection, schedule: Q01DX009 (ip), vehicle: saline): 160 % of control
- T/C (endpoint: mean survival time, dose: 4.0 mg/kg/injection, schedule: Q01DX005 (ip), vehicle: saline): 207 % of control
- T/C (endpoint: mean survival time, dose: 4.0 mg/kg/injection, schedule: Q01DX009 (ip), vehicle: saline): 124 % of control
- T/C (endpoint: mean survival time, dose: 5.0 mg/kg/injection, schedule: Q03HX024 (ip), vehicle: saline): 155 % of control
- T/C (endpoint: mean survival time, dose: 5.0 mg/kg/injection, schedule: Q04DX003 (ip), vehicle: saline): 163 % of control
- T/C (endpoint: mean survival time, dose: 10.0 mg/kg/injection, schedule: Q03HX024 (ip), vehicle: saline): 231 % of control
- T/C (endpoint: mean survival time, dose: 10.0 mg/kg/injection, schedule: Q04DX003 (ip), vehicle: saline): 189 % of control
- T/C (endpoint: mean survival time, dose: 20.0 mg/kg/injection, schedule: Q01DX001 (ip), vehicle: saline): 151 % of control
- T/C (endpoint: mean survival time, dose: 20.0 mg/kg/injection, schedule: Q03HX024 (ip), vehicle: saline): 151 % of control
- T/C (endpoint: mean survival time, dose: 20.0 mg/kg/injection, schedule: Q04DX003 (ip), vehicle: saline): 184 % of control

Compound: COc1cccc2c1C(=O)c1c(OC)c(C)cc(OC)c1C2=O
- T/C (endpoint: mean survival time, dose: 12.5 mg/kg/injection, schedule: Q01DX009 (ip), vehicle: other): 113 % of control
- T/C (endpoint: mean survival time, dose: 25.0 mg/kg/injection, schedule: Q01DX009 (ip), vehicle: other): 110 % of control
- T/C (endpoint: mean survival time, dose: 50.0 mg/kg/injection, schedule: Q01DX009 (ip), vehicle: other): 110 % of control
- T/C [6]: 110 % of control
- T/C [7]: 117 % of control

Compound: O=S1(=O)C2CCC(C2)C1Cl (configuration not stated)
- T/C [1]: 88 % of control

Compound: O=P(O)(O)OP(=O)(O)OCC1OC(n2cnc3c(=S)nc[nH]c32)C(O)C1O (configuration not stated)
- T/C (endpoint: mean survival time, dose: 200.0 mg/kg/injection, schedule: Q01DX009 (ip), vehicle: saline sonified): 123 % of control
- T/C (endpoint: mean survival time, dose: 400.0 mg/kg/injection, schedule: Q01DX009 (ip), vehicle: saline sonified): 112 % of control

Compound: C=C(COC(C)(C)C)CN(C)C
- T/C [8]: 98 % of control
- T/C [9]: 104 % of control

Compound: O=[N+]([O-])c1ccc(N(CCO)CCO)c2c1no[n+]2[O-]
- T/C (endpoint: median survival time, dose: 12.5 mg/kg/injection, schedule: Q01DX009 (ip), vehicle: saline with Tween-80): 114 % of control
- T/C (endpoint: median survival time, dose: 25.0 mg/kg/injection, schedule: Q01DX009 (ip), vehicle: saline with Tween-80): 111 % of control
- T/C (endpoint: median survival time, dose: 50.0 mg/kg/injection, schedule: Q01DX009 (ip), vehicle: saline with Tween-80): 114 % of control

Compound: COc1ccc2c(c1)c(C#N)cc[n+]2C
- T/C [10]: 100 % of control
- T/C [11]: 110 % of control
- T/C [12]: 100 % of control
- T/C [13]: 91 % of control

Compound: c1cc2c3c(c1)nc(CCc1nc4cccc5c4n1CCC5)n3CCC2
- T/C [14]: 100 % of control
- T/C [8]: 91 % of control
- T/C [9]: 92 % of control

Compound: CCOC(=O)C(OC(=O)c1ccccc1)c1ccccc1 (configuration not stated)
- T/C [6]: 98 % of control
- T/C [7]: 96 % of control
- T/C (endpoint: mean survival time, dose: 400.0 mg/kg/injection, schedule: Q01DX009 (ip), vehicle: other): 96 % of control

Compound: Nc1ccc(N2CCNCC2)cc1
- T/C [1]: 104 % of control
- T/C [2]: 101 % of control

Compound: CN(C)c1ccc2c(Nc3ccc(NS(C)(=O)=O)cc3)c3ccc(N(C)C)cc3nc2c1
- T/C (endpoint: median survival time, dose: 50.0 mg/kg/injection, schedule: Q01DX009 (ip), vehicle: Klucel (hydroxypropylcellulose) (HPC)): 170 % of control
- T/C (endpoint: median survival time, dose: 100.0 mg/kg/injection, schedule: Q01DX009 (ip), vehicle: Klucel (hydroxypropylcellulose) (HPC)): 151 % of control and 193 % of control
- T/C (endpoint: median survival time, dose: 200.0 mg/kg/injection, schedule: Q01DX009 (ip), vehicle: Klucel (hydroxypropylcellulose) (HPC)): 164 % of control and 174 % of control

Compound: COc1cc(OC)c(NC(=O)Nc2cccc(C(=O)O)c2)cc1Cl
- T/C [8]: 88 % of control
- T/C [9]: 88 % of control
- T/C (endpoint: mean survival time, dose: 200.0 mg/kg/injection, schedule: Q01DX009 (ip), vehicle: saline with Tween-80): 92 % of control

Compound: O=C(Nc1ccccc1Cl)c1ccccc1CC(O)(c1ccccc1)c1ccccc1
- T/C [4]: 102 % of control
- T/C [5]: 109 % of control
- T/C (endpoint: mean survival time, dose: 400.0 mg/kg/injection, schedule: Q01DX001 (ip), vehicle: saline sonified): 86 % of control

Compound: C[N+](C)(C)CCS(=O)(=O)[O-]
- T/C [15]: 102 % of control
- T/C [16]: 100 % of control
- T/C [17]: 100 % of control

Compound: FC1(F)C(Cl)=[C]([Hg][C]2=C(Cl)C(F)(F)C(F)(F)C2(F)F)C(F)(F)C1(F)F
- T/C (endpoint: mean survival time, dose: 75.0 mg/kg/injection, schedule: Q01DX001 (ip), vehicle: saline): 98 % of control

Compound: O=C(O)c1nnc(C(=O)O)nn1
- T/C (endpoint: mean survival time, dose: 12.5 mg/kg/injection, schedule: Q01DX009 (ip), vehicle: water): 100 % of control
- T/C (endpoint: mean survival time, dose: 25.0 mg/kg/injection, schedule: Q01DX009 (ip), vehicle: water): 100 % of control
- T/C (endpoint: mean survival time, dose: 50.0 mg/kg/injection, schedule: Q01DX009 (ip), vehicle: water): 95 % of control
- T/C (endpoint: mean survival time, dose: 100.0 mg/kg/injection, schedule: Q01DX009 (ip), vehicle: water): 94 % of control

Compound: CCCCCCCCCC1=NC(C)(C)CN1c1ccccc1
- T/C [18]: 98 % of control
- T/C (endpoint: mean survival time, dose: 10.0 mg/kg/injection, schedule: Q01DX009 (ip), vehicle: saline with Tween-80): 102 % of control
- T/C [19]: 106 % of control

Compound: N#CSCc1cc(Cl)c(CSC#N)c(Cl)c1Cl
- T/C (endpoint: mean survival time, dose: 75.0 mg/kg/injection, schedule: Q04DX003 (ip), vehicle: saline): 101 % of control
- T/C (endpoint: mean survival time, dose: 150.0 mg/kg/injection, schedule: Q04DX003 (ip), vehicle: saline): 96 % of control
- T/C (endpoint: mean survival time, dose: 300.0 mg/kg/injection, schedule: Q04DX003 (ip), vehicle: saline): 97 % of control

Compound: Nc1ccc(OC(=O)c2ccccc2)cc1
- T/C (endpoint: mean survival time, dose: 12.5 mg/kg/injection, schedule: Q01DX001 (ip), vehicle: saline with Tween-80): 92 % of control
- T/C [11]: 91 % of control
- T/C (endpoint: mean survival time, dose: 25.0 mg/kg/injection, schedule: Q01DX001 (ip), vehicle: saline with Tween-80): 90 % of control
- T/C [14]: 86 % of control
- T/C (endpoint: mean survival time, dose: 50.0 mg/kg/injection, schedule: Q01DX001 (ip), vehicle: saline with Tween-80): 90 % of control

Compound: CC1CCN=C(CCC2CCCCC2=O)O1 (configuration not stated)
- T/C [1]: 96 % of control
- T/C [2]: 101 % of control
- T/C [3]: 96 % of control

Compound: CCCN1C(=O)C2C3CCC(O3)C2C1=O (configuration not stated)
- T/C (endpoint: mean survival time, dose: 100.0 mg/kg/injection, schedule: Q04DX002 (ip), vehicle: saline with Tween-80): 95 % of control
- T/C (endpoint: mean survival time, dose: 200.0 mg/kg/injection, schedule: Q04DX002 (ip), vehicle: saline with Tween-80): 106 % of control
- T/C (endpoint: mean survival time, dose: 400.0 mg/kg/injection, schedule: Q04DX002 (ip), vehicle: saline with Tween-80): 102 % of control

Compound: CCc1cc[c]([Sb](=[O])([OH])[OH])cc1
- T/C (endpoint: mean survival time, dose: 50.0 mg/kg/injection, schedule: Q04DX003 (ip), vehicle: saline): 89 % of control
- T/C [15]: 101 % of control
- T/C [16]: 101 % of control

Compound: Oc1ccccc1C1=CCCCCC1
- T/C [15]: 95 % of control
- T/C [16]: 101 % of control
- T/C [17]: 104 % of control

Compound: Cc1ccc([NH-])c([NH-])c1.[Cl][Pt+2][Cl]
- T/C (endpoint: mean survival time, dose: 2.5 mg/kg/injection, schedule: Q01DX009 (ip), vehicle: saline with Tween-80): 151 % of control
- T/C [18]: 180 % of control
- T/C [19]: 94 % of control

Compound: Cc1cnnc(N(C)N)c1
- T/C (endpoint: mean survival time, dose: 12.5 mg/kg/injection, schedule: Q04DX002 (ip), vehicle: saline): 107 % of control
- T/C (endpoint: mean survival time, dose: 25.0 mg/kg/injection, schedule: Q04DX002 (ip), vehicle: saline): 114 % of control
- T/C (endpoint: mean survival time, dose: 50.0 mg/kg/injection, schedule: Q04DX002 (ip), vehicle: saline): 96 % of control

Compound: COc1cc2c(cc1OC)C1CCN3C(=O)CCC3N1CC2 (configuration not stated)
- T/C [1]: 102 % of control
- T/C [2]: 102 % of control
- T/C [3]: 108 % of control

Compound: CCN(CC)CCCC(C)Nc1ncnc2oc(C)c(C)c12 (configuration not stated)
- T/C [10]: 93 % of control
- T/C (endpoint: mean survival time, dose: 6.25 mg/kg/injection, schedule: Q04DX003 (ip), vehicle: saline with Tween-80): 103 % of control
- T/C [11]: 95 % of control
- T/C [12]: 105 % of control
- T/C [14]: 95 % of control
- T/C [13]: 102 % of control
